Measurements taken from ChEMBL document CHEMBL4706559, “New indolylarylsulfone non-nucleoside reverse transcriptase inhibitors show low nanomolar inhibition of single and double HIV-1 mutant strains” (Eur J Med Chem, 2020).

How the values were obtained:
[1] = test system: Human immunodeficiency virus 1; assay: Ratio of Kon of HIV-1 p66/p51 reverse transcriptase K103N/Y181C double mutant/nucleic acid/dTTP ternary complex to Kon of HIV-1 p66/p51 reverse transcriptase/nucleic acid binary complex using poly(rA)/oligo(dT) as templates in presence of [3H]dTTP
[2] = target: Human immunodeficiency virus type 1 reverse transcriptase (Human immunodeficiency virus 1) (UniProt Q72547); assay: Binding affinity to wild type HIV-1 p66/p51 reverse transcriptase/nucleic acid/dTTP ternary complex assessed as dissociation constant using poly(rA)/oligo(dT) as templates in presence of [3H]dTTP
[3] = test system: Human immunodeficiency virus 1; assay: Inhibition of HIV1 p66/p51 reverse transcriptase K103N/Y181C double mutant assessed as apparent Vmax at 300 nM using 10 to 500 uM poly(rA)/oligo(dT) as templates in presence of fixed concentration of [3H]dTTP by Michaelis-Menten analysis (reference value: 12 +/- 1%)
[4] = test system: Human immunodeficiency virus 1; assay: Inhibition of HIV1 p66/p51 reverse transcriptase K103N/Y181C double mutant assessed as apparent Vmax at 150 nM using fixed concentration of poly(rA)/oligo(dT) as templates in presence of 2 to 100 uM of [3H]dTTP by Michaelis-Menten analysis (reference value: 9.6 +/- 0.4%)
[5] = target: Human immunodeficiency virus type 1 reverse transcriptase (Human immunodeficiency virus 1) (UniProt Q72547); assay: Ratio of Kon of wild type HIV-1 p66/p51 reverse transcriptase/nucleic acid binary complex to Kon of wild type HIV-1 p66/p51 reverse transcriptase/nucleic acid/dTTP ternary complex using poly(rA)/oligo(dT) as templates in presence of [3H]dTTP
[6] = Binding affinity to HIV-1 p66/p51 reverse transcriptase K103N/Y181C double mutant/nucleic acid binary complex using poly(rA)/oligo(dT) as templates in presence of [3H]dTTP; design: species or system Human immunodeficiency virus 1
[7] = target: Human immunodeficiency virus type 1 reverse transcriptase (Human immunodeficiency virus 1) (UniProt Q72547); assay: Synergistic inhibition of wild type HIV-1 p66/p51 reverse transcriptase assessed as combination index using poly(rA)/oligo(dT) as templates in presence of [3H]dTTP preincubated with enzyme and AZTTP followed by substrate addition
[8] = test system: Human immunodeficiency virus 1; assay: Inhibition of HIV1 p66/p51 reverse transcriptase K103N/Y181C double mutant assessed as apparent Km of substrate at 300 nM using fixed concentration of poly(rA)/oligo(dT) as templates in presence of 2 to 100 uM of [3H]dTTP by Michaelis-Menten analysis (reference value: 9.2 +/- 1.4 uM)
[9] = test system: Human immunodeficiency virus 1; assay: Synergistic inhibition of HIV-1 p66/p51 reverse transcriptase K103N/Y181C double mutant assessed as combination index using poly(rA)/oligo(dT) as templates in presence of [3H]dTTP preincubated with enzyme and AZTTP followed by substrate addition; assay type: functional
[10] = test system: Human immunodeficiency virus 1; assay: Resistance index, ratio of EC50 for antiviral activity against HIV1 harboring RT Y188L mutant infected in human MT4 cells to EC50 for antiviral activity against HIV1 NL4-3 infected in human MT4 cells; assay type: functional
[11] = test system: Human immunodeficiency virus 1; assay: Inhibition of HIV1 p66/p51 reverse transcriptase K103N/Y181C double mutant assessed as apparent Vmax at 75 nM using 10 to 500 uM poly(rA)/oligo(dT) as templates in presence of fixed concentration of [3H]dTTP by Michaelis-Menten analysis (reference value: 12 +/- 1%)

SMILES: Cc1cc(C)cc(S(=O)(=O)c2c(C(=O)NCc3ccccc3O)[nH]c3ccc(Cl)cc23)c1
- Ratio [1]: 4
- K [2]: 4.1 10^-3/s
- Vmax(app) [3]: 3.2%
- Vmax(app) [4]: 2.9%
- Ratio [5]: 7
- Ki [6]: 86 nM
- CI [7]: 1.15
- Km [8]: 1.9 µM
- CI [9]: 0.81
- Ratio EC50 [10]: >30
- Vmax(app) [11]: 7.7%
